Data set [1] concerns the target T1, Serotonin 5-HT2A receptor (Rattus norvegicus, UniProt P14842).
T1 construct: from tissue; host or cells: Wistar rat brain, frontal cortex membranes
The data set can be described thus: Serotonin 5-HT2A receptor binding assay ([3H]-Ketanserin). The settings on record: Serotonin 5-HT2A receptor binding test, rat frontal cortex membrane, Ki calculated from IC50 by Cheng-Prussoff formula. The gist of the method:
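Rat frontal cortex membranes incubated with [3H]-ketanserin (final 1 to 3 nM) in 50 mM Tris-HCl pH 7.4, 1% DMSO, 37° C. for 20 minutes; bound radioactivity counted after filtration.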

Data set [2] concerns serotonin (5-HT) uptake by rat brain synaptosome. The data set can be described thus: Serotonin (5-HT) uptake inhibitory activity by rat brain synaptosome. The settings on record: test compound 300 nM, tritium labeled 5-HT 8 nM, 10 minutes uptake at 37° C. It is filed as biochemical. On the procedure: Measurement of serotonin (5-HT) uptake inhibitory activity of a test compound by rat brain synaptosome
Wistar male rats were decapitated, the brain was retrieved and frontal cortex was dissected out, and it was homogenized in 0.32 M sucrose solution of a weight 20 times of the weight of the tissue using a Potter type homogenizer. The homogenate was centrifuged at 4° C., 1,000×g for 10 minutes, the obtained supernatant was further centrifuged at 4° C., 20,000×g for 20 minutes, and the pellet was suspended in an incubation buffer (20 mM Hepes buffer (pH 7.4) containing 10 mM glucose, 145 mM sodium chloride, 4.5 mM potassium chloride, 1.2 mM magnesium chloride, 1.5 mM calcium chloride), which was used as crude synaptosome fraction.
5-HT uptake reaction was performed in a volume of 200 μl using a 96-well round bottom plate and pargyline (final concentration 10 μM) and sodium ascorbate (final concentration 0.2 mg/ml) were contained in the incubation buffer upon reaction and used.
Incubation buffer (total counting), non-labeled 5-HT (final concentration 10 μM, non-specific counting) and the diluted test compound (final concentration 300 nM) were added to each well. One-tenth quantity of the final volume of the synaptosome fraction was added and after preincubated at 37° C. for 10 minutes, tritium labeled 5-HT solution (final concentration 8 nM) was added and uptake reaction was started at 37° C. The uptake time was 10 minutes and the reaction was terminated by vacuum filtration through a 96-well fiber glass filter paper plate, and after the filter paper was washed with cold normal saline, it was dried enough and Microscint0 (Perkin-Elmer) was added to the filter and remaining radioactivity on the filter was measured.
Serotonin uptake inhibitory activity (%) was calculated from the radioactivity of total counting as 100%, of non-specific counting as 0%, and of counting obtained with test compound. % of inhibition of 5-HT(%)=100−[(Count obtained with test compound−Nonspecific count (0% Uptake))/(Total count (100% Uptake)−Nonspecific count (0% Uptake))]×100 The results are shown in the next Table 314.

For data set [3], the target named is T2, Dopamine D2 receptor (Rattus norvegicus, UniProt P61169).
T2 construct: from tissue; host or cells: Wistar rat brain, corpus striatum membranes
The experiment in a line: Dopamine D2 receptor binding assay ([3H]-raclopride). Conditions: Dopamine D2 receptor binding test, rat corpus striatum membrane, Ki calculated from IC50 by Cheng-Prussoff formula. In outline: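 Wistar male rat striatal membranes incubated with [3H]-raclopride (final 1 to 2 nM) in 50 mM Tris-HCl with NaCl, KCl, CaCl2, MgCl2, pH 7.4, 1% DMSO, 1 h at room temperature; filtration and scintillation counting. Nonspecific binding with 10 μM (+)-butaclamol; IC50 converted to Ki by Cheng-Prussoff.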

Data set [4] addresses Human recombinant dopamine D2 receptor (Homo sapiens, UniProt P14416). The settings on record: forskolin-stimulated D2 receptor expressing CHO cells; well without test compound = 100%. On the procedure: Partial agonistic activity on dopamine D2 receptor using D2 receptor expression cells
Partial agonistic activity on dopamine D2 receptor was evaluated by quantitatively determining cyclic AMP production inhibitory effect of a test compound in dopamine D2 receptor expression cells in which adenosine 3′,5′-cyclic monophosphate (cyclic AMP) production was induced by forskolin stimulation.
Human recombinant dopamine D2 receptor expressing Chinese hamster ovary/DHFR(−) cells were cultured in a culture medium (Iscove's Modified Dulbecco's Medium (IMDM culture medium), 10% fetal bovine serum, 50 I.U./ml penicillin, 50 μg/ml streptomycin, 200 μg/ml geneticin, 0.1 mM sodium hypoxanthine, 16 μM thymidine) at 37° C. and 5% carbon dioxide condition. Cells were seeded at 10^4 cells/well on a 96-well microtiter plate coated with poly-L-lysine and grown under the same condition for 2 days. Each well was washed with 100 μl of a culture medium (IMDM culture medium, 0.1 mM sodium hypoxanthine, 16 μM thymidine).

pKi: −log10 of the molar value.

This is an account of results in patent US8071600B2, “Derivatives of 4-piperazin-1-yl-4-benzo[B]thiophene suitable for the treatment of CNS disorders” (Otsuka Pharmaceutical Co., Ltd., priority 2005, dated 2011).

T1 sequence (P14842 whole entry): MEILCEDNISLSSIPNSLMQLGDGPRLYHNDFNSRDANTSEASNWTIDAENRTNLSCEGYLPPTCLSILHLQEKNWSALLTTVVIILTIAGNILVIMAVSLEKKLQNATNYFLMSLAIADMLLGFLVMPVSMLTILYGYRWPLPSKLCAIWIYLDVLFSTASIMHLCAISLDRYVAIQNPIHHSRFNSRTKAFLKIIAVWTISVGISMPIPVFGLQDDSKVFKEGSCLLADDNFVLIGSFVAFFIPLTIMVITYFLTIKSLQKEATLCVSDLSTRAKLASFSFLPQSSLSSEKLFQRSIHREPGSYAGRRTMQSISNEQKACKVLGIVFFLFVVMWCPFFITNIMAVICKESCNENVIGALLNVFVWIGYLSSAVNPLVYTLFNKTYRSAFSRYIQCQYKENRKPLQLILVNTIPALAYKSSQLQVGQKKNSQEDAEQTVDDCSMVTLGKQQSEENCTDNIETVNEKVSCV
T2 sequence (P61169 whole entry): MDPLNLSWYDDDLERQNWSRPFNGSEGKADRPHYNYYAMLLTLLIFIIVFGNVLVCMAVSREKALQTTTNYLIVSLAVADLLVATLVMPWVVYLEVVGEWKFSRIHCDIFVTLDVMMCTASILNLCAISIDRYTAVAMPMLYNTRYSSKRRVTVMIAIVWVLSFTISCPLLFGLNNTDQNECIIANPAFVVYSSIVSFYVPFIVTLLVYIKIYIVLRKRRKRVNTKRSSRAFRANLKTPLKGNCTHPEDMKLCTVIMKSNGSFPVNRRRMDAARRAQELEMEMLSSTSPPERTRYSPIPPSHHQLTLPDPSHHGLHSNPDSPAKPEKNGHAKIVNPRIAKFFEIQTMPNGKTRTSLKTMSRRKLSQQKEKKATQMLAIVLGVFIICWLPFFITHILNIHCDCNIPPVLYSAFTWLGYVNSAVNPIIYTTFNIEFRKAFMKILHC
Human recombinant dopamine D2 receptor, sequence (P14416 whole entry): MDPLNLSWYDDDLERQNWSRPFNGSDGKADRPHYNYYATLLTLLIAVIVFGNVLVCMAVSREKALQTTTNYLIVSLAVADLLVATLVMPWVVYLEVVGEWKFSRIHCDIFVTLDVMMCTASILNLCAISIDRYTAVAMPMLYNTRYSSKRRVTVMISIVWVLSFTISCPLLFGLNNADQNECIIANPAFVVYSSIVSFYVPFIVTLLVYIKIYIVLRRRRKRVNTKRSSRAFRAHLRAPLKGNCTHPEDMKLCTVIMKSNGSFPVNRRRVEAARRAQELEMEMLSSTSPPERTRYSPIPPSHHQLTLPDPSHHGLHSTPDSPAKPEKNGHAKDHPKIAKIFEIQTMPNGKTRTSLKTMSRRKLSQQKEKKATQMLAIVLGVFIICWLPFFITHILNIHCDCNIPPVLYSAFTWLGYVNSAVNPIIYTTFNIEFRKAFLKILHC

The term pKi denotes the Ki on a negative log10 scale, so that one unit is a factor of ten. As for `CC(=O)Nc1cc(OCCCN2CCN(c3cccc4sccc34)CC2)n(C)n1` [Example 1106], the pKi was 8.15 in data set [1] and 9.00 in data set [3]. For the same compound, the “Serotonin uptake inhibitory ratio (%) (300 nM)” value in data set [2] amounted to 69.9%.
The matching figures for `COC(=O)N1CCN(c2cc(C=O)c(OCCCN3CCN(c4cccc5sccc45)CC3)c(OC)c2)CC1` [Example 1086]: 8.24, 9.00 and 98.6%.
As a reminder, the melting point is the temperature, or range, at which the solid turns liquid. `CNc1cc(C)c(OCCCN2CCN(c3cccc4sccc34)CC2)c(OC)c1.Cl` [Example 11, N-methyl-4-[3-(4-benzo[b]thiophen-4-yl-piperazin-1-yl)propoxy]-3-methoxy-5-methylaniline hydrochloride]: the melting point is 239.5 to 244 °C (dec.). Moreover, the pKi in data set [1] is 8.36. Also, the “Serotonin uptake inhibitory ratio (%) (300 nM)” value in data set [2] stood at 95.2%. Further, in data set [3], the negative logarithm of the Ki (pKi) is 9.70.
In the case of `COC(=O)N1CCN(c2cc(C)c(OCCCN3CCN(c4cccc5sccc45)CC3)c(OC)c2)C(=O)C1` [Example 1080], the figures for the negative-log Ki (pKi) in data set [1] and in data set [3] were 8.47 and 9.22, respectively. The “Serotonin uptake inhibitory ratio (%) (300 nM)” value in data set [2] worked out at 95.6%.
The matching figures for `COc1cc(C(=O)NCC(OC)OC)cc(C)c1OCCCN1CCN(c2cccc3sccc23)CC1` [Example 802]: 8.85, 9.22 and 96.6%.
For `COc1cc(NC(=O)CNC(=O)OC(C)(C)C)cc(C)c1OCCCN1CCN(c2cccc3sccc23)CC1` [Example 1059], the melting point was 140.5 to 142.5 °C. Also, the pKi in data set [1] is 8.42. For the same compound, in data set [2], the “Serotonin uptake inhibitory ratio (%) (300 nM)” value is 97.2%. Besides, the negative-log Ki (pKi) in data set [3] is 9.40.
On to `COC(=O)N1CCN(c2cc(CO)c(OCCCN3CCN(c4cccc5sccc45)CC3)c(OC)c2)CC1` [Example 1087], for which the melting point lay within 128 to 130 °C. Moreover, the pKi in data set [1] was 8.59. In addition, the “Serotonin uptake inhibitory ratio (%) (300 nM)” value in data set [2] is on record as 97.1%. In addition, in data set [3], the negative-log Ki (pKi) was 9.52.
In the case of `NCCc1ccc(O)c(O)c1` [dopamine], the “quantity of cyclic AMP suppressed to, as the maximum activity” value in data set [4] is “about 10%”.
On to `COc1cc(N2CCCC2)cc(C)c1OCCCN1CCN(c2cccc3sccc23)CC1` [Example 1076], for which the values for the pKi in data set [1] and in data set [3] were 7.91 and 8.92, respectively. For the same compound, the “Serotonin uptake inhibitory ratio (%) (300 nM)” value in data set [2] came out at 87.8%.
The matching figures for `COc1cc(NC(=O)CN)cc(C)c1OCCCN1CCN(c2cccc3sccc23)CC1` [Example 1060]: 8.92, 10.00 and 97.5%.
`COc1cc(N2CCOC2=O)cc(CO)c1OCCCN1CCN(c2cccc3sccc23)CC1` [Example 1071]: the figures for the pKi in data set [1] and in data set [3] were 8.89 and 10.00, respectively. Further, the “Serotonin uptake inhibitory ratio (%) (300 nM)” value in data set [2] is reported as 94.4%.
As to `COc1cc(N(C)C)cc(C)c1OCCCN1CCN(c2cccc3sccc23)CC1.Cl` [Example 15, 4-[3-(4-benzo[b]thiophen-4-yl-piperazin-1-yl)propoxy]-N,N-dimethyl-3-methoxy-5-methylaniline hydrochloride], the melting point was 234.5 to 240.5 °C (dec.). Besides, the negative-log Ki (pKi) in data set [1] is 8.23. Besides, the “Serotonin uptake inhibitory ratio (%) (300 nM)” value in data set [2] is 95.3%. In addition, in data set [3], the pKi is 9.40.
With `CN(C)C(=O)N1CCC(OCCCN2CCN(c3cccc4sccc34)CC2)CC1` [Example 1110], the figures for the pKi in data set [1] and in data set [3] were 8.31 and 8.92, respectively. For the same compound, the “Serotonin uptake inhibitory ratio (%) (300 nM)” value in data set [2] turned out to be 38.5%.
The matching figures for `COc1cc(N2CCN(C(C)=O)CC2=O)cc(C)c1OCCCN1CCN(c2cccc3sccc23)CC1` [Example 1079]: 8.55, 9.40 and 82.3%.
On the same counts, the results for `COc1cc(N2CCN(C(C)=O)CC2)cc(C)c1OCCCN1CCN(c2cccc3sccc23)CC1` [Example 1083] are 8.82, 9.52 and 96.3%.
Turning to `COc1cc(NC(=O)CNC(C)=O)cc(C)c1OCCCN1CCN(c2cccc3sccc23)CC1` [Example 1061], the melting point lay in the range of 167.5 to 170.5 °C. Further, the negative logarithm of the Ki (pKi) in data set [1] was 8.92. Besides, the “Serotonin uptake inhibitory ratio (%) (300 nM)” value in data set [2] was determined as 97.5%. In addition, the pKi in data set [3] was 10.00.
With `CNC(=O)c1csc(OCCCN2CCN(c3cccc4sccc34)CC2)n1.Cl` [Example 6, N-methyl-2-[3-(4-benzo[b]thiophen-4-yl-piperazin-1-yl)propoxy]thiazole-4-carboxamide hydrochloride], the melting point fell in the range of 199.5 to 202.5 °C. In data set [1], the negative-log Ki (pKi) was 8.48. Further, the negative-log Ki (pKi) in data set [3] was 9.15.
As to `COc1cc(N(C)C(C)=O)cc(C)c1OCCCN1CCN(c2cccc3sccc23)CC1.Cl` [Example 14, N-{4-[3-(4-benzo[b]thiophen-4-yl-piperazin-1-yl)propoxy]-3-methoxy-5-methylphenyl}-N-methylacetamide hydrochloride], the melting point was 230 to 234 °C (dec.). Moreover, in data set [1], the negative-log Ki (pKi) is 8.62. The pKi in data set [3] was 9.52.
`COc1cc(N2CCCCC2)cc(C)c1OCCCN1CCN(c2cccc3sccc23)CC1` [Example 1089]: the pKi in data set [1] was 7.86; in data set [3], 9.00. Besides, the “Serotonin uptake inhibitory ratio (%) (300 nM)” value in data set [2] is reported as 85.0%.
On the same counts, the results for `CN(C)c1cc(OCCCCN2CCN(c3cccc4sccc34)CC2)n(C)n1` [Example 1138] are 7.71, 8.85 and 67.2%.
On the same counts, the results for `CN(C)C(=O)c1csc(OCCCN2CCN(c3cccc4sccc34)CC2)n1` [Example 1113] are 8.30, 9.15 and 59.3%.
`CNC(=O)c1cnc(OCCCN2CCN(c3cccc4sccc34)CC2)cn1` [Example 61] showed a melting point of 116.5 to 118 °C. The negative-log Ki (pKi) in data set [1] is 8.31. The negative-log Ki (pKi) in data set [3] is 8.30.
